Results on two sequences are retold here after patent US20210369812A1, “OSTEOINDUCTIVE PEPTIDES, COMPOSITIONS, IMPLANTS, AND METHODS OF USE” (The Board of Regents of the University of Oklahoma, priority 2018, published 2021).

Entries after “also recorded” stand apart in the source; their conditions may differ.

In one test the target is T1, BMPR2 (Homo sapiens, UniProt Q13873).
T1 construct: purchased G&P Biosciences
T1 sequence (Q13873 27-150 limits assumed): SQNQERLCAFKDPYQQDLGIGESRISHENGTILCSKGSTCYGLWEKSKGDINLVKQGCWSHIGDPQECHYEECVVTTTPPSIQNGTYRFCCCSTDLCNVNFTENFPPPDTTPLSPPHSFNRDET
Description: Biopanning of Ph.D.-12 phage library on immobilized BMPR2-Fc. The format is binding. As to conditions: peptide displayed on p3 of M13 phage; 3 rounds of panning. The method, then: The Ph.D.™-12 phage library was diluted in tris-buffered saline mixed with Tween-20 (TBS+0.1% v/v Tween-20 and abbreviated TBST) for a final concentration of 2×10^11 phage in 1 mL of TBST. The diluted library was then pipetted onto one of the wells of a 12-well poly-L-lysine plate followed by rocking the plate gently for 60 minutes at room temperature. […] This supernatant served as the starting phage library for subsequent binding selections. The phages which stuck to the plate were discarded.
This procedure is only applicable if the charge of the desired protein to be immobilized is negative, determined by checking the pI value of the protein. […]. This procedure was written for 12-well plates coated in poly-L-lysine (positively charged). Separate solutions of BMPR1A-Fc and BMPR2-Fc were prepared at 80 μg/ml in Tris-buffered saline (pH 7.5). In separate wells and on separate poly-L-lysine coated 12-well plates, 0.3 ml of each solution of receptor was added. The solutions of BMPR1A-Fc and BMPR2-Fc were swirled around the plate surface until the entire surface was wet. The plates were then incubated overnight at 4° C. with gentle agitation in a humidified container (a sealed plastic box with damp paper towels). Each individual receptor was now immobilized.
The following selection procedure is based off of the direct coating procedure outlined in the Ph.D.™-12 Phage Display Libraries instructional manual (New England Biolabs) with some alterations. This procedure was carried out after immobilizing the targets BMPR1A-Fc and BMPR2-Fc in a 12-well poly-L-lysine coated plate. A stock solution of tetracycline was prepared (20 mg/ml in 1:1 ethanol:water). The coating solution containing the target receptors was poured off followed by firmly slapping the plates face down on a clean paper towel. Each well was then filled with blocking buffer (0.1 M NaHCO3 (pH 8.6), 5 mg/mL BSA, 0.02% NaN3. Filter sterilize, store at 4° C.) and incubated for 1 hour at 4° C. The blocking solution was then poured off followed by firmly slapping the plates down against a clean paper towel. Each plate was washed rapidly 6 times with Tris-buffered saline mixed with Tween-20 (TBS+0.1% v/v Tween-20). The plate was slapped against a clean paper towel each time. 1 ml of the phage library created from the negative selection process was then pipetted onto each of the target coated wells. The plates were then rocked gently at room temperature for 60 min. The non-binding phages were then discarded by pouring off the supernatant and slapping the plate face-down on a clean paper towel. The plate was then washed 10 times with TBST followed by slapping the plate face-down on a clean paper towel each time (a clean section of paper towel was used each time to prevent cross-contamination). The bound phages were then eluted by incubating with a nonspecific disruption buffer (0.2 M Glycine-HCl (pH 2.2), 1 mg/ml bovine serum albumin (BSA) for 15 minutes. The eluate (immersed in the disruption buffer) was then pipetted into a microcentrifuge tube followed by neutralization with 150 μl of 1 M Tris-HCl (pH 9.1). A small portion (˜1 μl) of this eluate could be titered and sequenced if desired. The rest of the eluate was amplified (see amplification of phage library section). Once amplified, the eluate was also titered. Determine the concentration of amplified phages by counting the blue plaques in titering as described. Dilute the amplified library to contain 2×10^11 phages in 1 mL of TBS (as little as 10^9 plaque forming units per ml can be used if there is not enough). A second poly-L-lysine 12-well plate was then coated with the target receptors to allow for a second round of biopanning carried out using the same steps except that the Tween-20 concentration in the wash steps was raised to 0.5% (v/v). The eluate from the second round was then amplified, titered and used in an additional 3rd round of panning on newly receptor coated plates. […]

The next test concerns hMSCs. Description: qPCR of osteoblast marker genes. The test is classed as cell-based, human. Particulars: 26 days on phage films; normalized to GAPDH; relative to negative control (basal media). The method, then: Gene expression was normalized to the reference gene, GAPDH. All fold changes are relative to a negative control (basal media with no peptides or phage) which represents the baseline at zero-fold change. […] All data represent the mean±standard deviation. (*P≤0.05, **P≤0.01, ***P≤0.001).
hMSCs were seeded (1×10^3 cells per culture plate) on to phage films as well as relevant control plates. The cells were then cultured for 26 days. The cells then were processed with a Power SYBR™ Green Cells-to-CT™ Kit. The number of cells was adjusted to be 5×10^3 cells per lysis reaction. All other parameters were kept the same as the manufacturer's protocol for this kit. The gene expression of osteopontin, osteocalcin, and collagen type 1A were measured as a fold change normalized to the reference gene GAPDH and a negative control (basal media+ cells but no phage) such that the baseline at zero-fold change represents the negative control. For temperature cycling and measuring CT values, a MiniOpticon Real Time PCR System was used.
(In general: In qPCR the cycle at which signal appears reflects the starting amount.)

Test [1] concerns human mesenchymal stem cells (hMSCs). The experiment in a line: Live cell binding through immunofluorescence. Particulars: 10^12 phages/ml. The format is cell-based. The method, then: Human mesenchymal stem cells (hMSCs) were grown to roughly 60% plate coverage in a 48-well tissue culture plate according to the company Lonza's culturing protocols. […] The hMSCs were then blocked with 0.5% BSA (dissolved in cell media) for 1 hour. The cell media for the hMSCs was then replaced with 1 ml of new cell media having of concentration of 10^12 phages/ml. Next, the plates were washed once with 400 μl of phosphate buffered saline (PBS) at a pH of 7.4. The hMSCs were then incubated with Anti-M13 Bacteriophage Coat Protein g8p antibody [RL-ph2] (ab9225) at a 1:1000 dilution in cell media (200 μl per well). The wells were then washed again with PBS (400 μl per wash). Next, the hMSCs were incubated with the secondary antibody, Goat-anti mouse AF-488 (Abcam) for 1 hour (1 ug/ml final concentration of antibody in media). The wells were then washed again with PBS (400 μl per wash). A Hoechst nuclear stain was used to stain the nuclei (PureBlu™ Hoechst 33342 Nuclear Staining Dye #1351304 from BioRad) according to the company's protocol. Cell Mask™ Orange Plasma Membrane Stain was used to stain membranes (CellMask™ Orange Plasma Membrane Stain Catalog number: C10045 from Thermo Fisher Scientific) according to the company's protocol. The phages binding to the cells were then imaged on a Nikon Eclipse Ti fluorescent microscope.

As to “SGTQDSMVGWNK (Completely synthesized in the lab - Ph.D.-12 Phage Display Peptide Library Kit (New England Biolabs))”, in the test with BMPR2, the “Binding to BMPR2 found by biopanning (frequency among sequenced plaques)” value is “showed up as a result of biopanning on both BMPR1A alone and BMPR2 alone; also recorded: discovered to bind”. For the same sequence, the “Osteopontin gene expression, fold change” value in the test on hMSCs is “greater osteopontin production than the wild type, but not greater than the Lonza osteogenic media; also recorded: statistically significant advantage over the wild type phage films”. For the same sequence, in test [1], the “Binding of peptide-bearing phages to live hMSCs” value is given as “bound to what appeared to be the same location as the outer membrane; also recorded: demonstrated an ability to bind to the outer membrane”.
Regarding “VHVPLHRGAVSA (Completely synthesized in the lab - Ph.D.-12 Phage Display Peptide Library Kit (New England Biolabs))”, the “Binding to BMPR2 found by biopanning (frequency among sequenced plaques)” value in the test with BMPR2 is reported as “discovered to bind”. Further, in the test on hMSCs, the “Osteopontin gene expression, fold change” value was “greater osteopontin production than the Lonza osteogenic media; also recorded: statistically significant advantage over the wild type phage films; also recorded: statistically significant advantage over the positive control”. The “Binding of peptide-bearing phages to live hMSCs” value in test [1] is given as “bound to what appeared to be the same location as the outer membrane; also recorded: demonstrated an ability to bind to the outer membrane”.
